Laboratory results from patent US20100227840A1, “USE OF 25-HYDROXY VITAMIN D3 TO IMPROVE MALE ANIMAL FERTILITY” (priority 2005, published 2010).

Tests used:
boars = assay: administration of 25-hydroxy vitamin D3 to boars: quality of semen; type: in vivo, pig; details: administered to boars
pigs = assay: conception rate of pigs fertilized by boars administered 25-hydroxy vitamin D3; type: in vivo, pig; details: pigs fertilized by boars that were administered 25-hydroxy vitamin D3

C=C1CC[C@H](O)C/C1=C/C=C1\CCC[C@]2(C)[C@@H]([C@H](C)CCCC(C)(C)O)CC[C@@H]12 [25-hydroxy vitamin D3]
quality of boar semen (boars): improves the quality of boar semen | conception rate in pigs (pigs): increases the conception rate in pigs
